In patent US9828350B2, “5,6-dihydro-2H-[1,4]oxazin-3-yl-amine derivatives useful as inhibitors of beta-secretase (BACE)” (Janssen Pharmaceutica NV, priority 2010, dated 2017):

Legend:
[1] = target: recombinant BACE1 protein (Homo sapiens, UniProt P56817); test: Biochemical FRET based assay; conditions: recombinant BACE1 1 μg/ml, 120 minutes at room temperature, pH 5.0; for IC50: read-out: Biochemical FRET based assay pIC50 (converted)
Method in brief: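 Proteolysis was read as the rise in donor fluorescence (320 nm excitation, 405 nm emission) from T0 to T120, expressed in RFU. The reaction ran 120 minutes at room temperature at pH 5.0 in citrate buffer with 4% DMSO, using […] quenched Swedish APP peptide and 1 μg/ml BACE1.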

[2] = test system: Abeta total; test: Cellular αLisa assay in SKNBE2 cells, Abeta total; format: cell-based, human; conditions: incubated for 18 hours; for IC50: Homo sapiens, SKNBE2, 18 h, read-out: Cellular αLisa assay in SKNBE2 cells Abetatotal pIC50 (converted)
Method in brief: (§1)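 Secreted Abeta levels were measured by sandwich αLisa, pairing biotin-AbN/25 donor beads with Ab4G8 acceptor beads for total Abeta or cAb42/26 for Abeta 1-42, read at 615 nm after 650 nm excitation following 1 hour. Cells were SKNBE2 expressing wild-type hAPP695, exposed to compound for 18 hours.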

[3] = test system: Abeta 1-42; test: Cellular αLisa assay in SKNBE2 cells, Abeta 1-42; format: cell-based, human; conditions: incubated for 18 hours; for IC50: Homo sapiens, SKNBE2, 18 h, read-out: Cellular αLisa assay in SKNBE2 cells Abeta 42 pIC50 (converted)
Method in brief: as §1

recombinant BACE1 protein, sequence (P56817 46-501): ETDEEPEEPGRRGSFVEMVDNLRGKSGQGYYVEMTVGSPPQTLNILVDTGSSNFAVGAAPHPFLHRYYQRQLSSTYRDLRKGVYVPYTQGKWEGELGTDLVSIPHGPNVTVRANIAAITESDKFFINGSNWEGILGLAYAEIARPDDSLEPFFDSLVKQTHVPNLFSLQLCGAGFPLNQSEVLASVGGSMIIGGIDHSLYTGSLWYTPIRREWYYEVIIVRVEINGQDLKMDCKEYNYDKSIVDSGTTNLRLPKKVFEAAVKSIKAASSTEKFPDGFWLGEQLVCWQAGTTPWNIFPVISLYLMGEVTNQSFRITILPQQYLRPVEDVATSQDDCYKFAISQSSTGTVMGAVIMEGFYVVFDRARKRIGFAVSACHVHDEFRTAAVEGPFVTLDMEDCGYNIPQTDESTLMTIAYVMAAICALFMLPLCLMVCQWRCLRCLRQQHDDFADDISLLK

Row | SMILES | IC50 [1] | IC50 [2] | IC50 [3] | Biochemical FRET based assay pIC50 [1] | Cellular αLisa assay in SKNBE2 cells Abetatotal pIC50 [2] | Cellular αLisa assay in SKNBE2 cells Abeta 42 pIC50 [3]
1 | N#Cc1cncc(-c2ccc(F)c([C@@]3(C4CC4)N=C(N)CO[C@@]3(F)C(F)(F)F)c2)c1 [Compound 271] | > 30200 nM | > 10000 nM | > 10000 nM |  |  | 
2 | NC1=N[C@@](c2cc(-c3cncnc3)ccc2F)(C2CC2)[C@H](F)OC1 [Compound 224, (5R,6S)-5-cyclopropyl-6-fluoro-5-(2-fluoro-5-pyrimidin-5-ylphenyl)-5,6-dihydro-2H-1,4-oxazin-3-amine] | 14800 nM | > 10000 nM | > 10000 nM |  |  | 
3 | CC1(c2cc(NC(=O)c3cnc(C(F)(F)F)cn3)ccc2F)COCC(N)=N1 (stereo not drawn) [Compound 147] |  |  |  | 6.7 | 7.6 | 7.59
4 | COc1cncc(-c2cccc([C@]3(C)CO[C@@H](C)C(N)=N3)c2)c1 (racemic) [Compound 18, trans-rac-5-[3-(5-methoxypyridin-3-yl)phenyl]-2,5-dimethyl-5,6-dihydro-2H-1,4-oxazin-3-amine] |  |  |  | 5.54 | 6.61 | 6.57
5 | CC1(c2cccc(-c3cncc(C#N)c3)c2)N=C(N)COC1C(F)(F)F (stereo not drawn) [Compound 171] | 1120 nM | 129 nM | 135 nM |  |  | 
6 | Cc1cc(Cl)cnc1C(=O)Nc1ccc(F)c([C@@]2(C3CC3)N=C(N)CO[C@@H]2F)c1 [Compound 315] | 81.3 nM | 145 nM | 170 nM |  |  | 
7 | CC1(c2cc(NC(=O)c3ccc(C(F)(F)F)nn3)ccc2F)COCC(N)=N1 (stereo not drawn) [Compound 26] |  |  |  | 5.67 | 6.74 | 6.72
8 | NC1=N[C@@](c2cccc(NC(=O)c3ncc(Cl)cc3Cl)c2)(C2CC2)[C@H](F)OC1 [Compound 276] | 174 nM | 41.7 nM | 41.7 nM |  |  | 
9 | COc1cnc(C(=O)Nc2cccc([C@@]3(C4CC4)N=C(N)CO[C@]3(F)C(F)(F)F)c2)cn1 [Compound 202] | 479 nM | 537 nM | 537 nM |  |  | 
10 | NC1=N[C@@](c2cccc(NC(=O)c3cnc(OCC(F)(F)F)cn3)c2)(C2CC2)[C@H](C(F)(F)F)OC1 [Compound 289] | 30.9 nM | 10.5 nM | 10 nM |  |  | 
11 | CC1(c2cc(NC(=O)c3ncc(Cl)cc3F)ccc2F)N=C(N)COC1F (stereo not drawn) [Compound 77] | 52.5 nM | 11.7 nM | 12 nM |  |  | 
12 | COc1cnc(C(=O)Nc2ccc(F)c([C@@]3(C4CC4)N=C(N)CO[C@H]3C(F)(F)F)c2)cn1 [Compound 230] | 45.7 nM | 13.5 nM | 13.8 nM |  |  | 
13 | CC1(c2cc(-c3cccc(OC(F)(F)F)c3)c(F)cc2F)COCC(N)=N1.Cl (stereo not drawn) [Compound 36] |  |  |  | 5.13 | 6.09 | 5.98
14 | C[C@]1(c2cc(NC(=O)c3ccncn3)ccc2F)N=C(N)CO[C@H]1C(F)(F)F [Compound 168] | 832 nM | 74.1 nM | 79.4 nM |  |  | 
15 | NC1=N[C@@](c2cccc(-c3cncnc3)c2)(C2CC2)[C@@H](F)OC1 [Compound 257] | 891 nM | 977 nM | 1020 nM |  |  | 
16 | CC1(c2cc(-c3cncc(C#N)c3)ccc2F)N=C(N)COC1C(F)(F)F (single isomer, unassigned) [Compound 265] | 525 nM |  |  |  | 7.16 | 7.16
17 | NC1=N[C@@](c2cc(NC(=O)c3ncc(Cl)cc3Cl)ccc2F)(C2CC2)[C@@H](F)OC1 [Compound 259] | 85.1 nM | 126 nM | 135 nM |  |  | 
18 | NC1=N[C@@](c2cc(NC(=O)c3ncc(Cl)cc3Cl)ccc2F)(C2CC2)[C@H](C(F)(F)F)OC1 [Compound 234] | 25.1 nM | 10.2 nM | 11.5 nM |  |  | 
19 | COc1cnc(C(=O)Nc2cccc(C3(C)COC(F)(C(F)(F)F)C(N)=N3)c2)cn1 (single isomer, unassigned) [Compound 69] | 5130 nM |  |  |  | <5 | 5.13
20 | C[C@]1(c2cccc(NC(=O)c3ccc(C#N)cn3)c2)N=C(N)CO[C@@]1(F)C(F)(F)F [Compound 241] | 324 nM | 120 nM | 126 nM |  |  | 
21 | Cc1cnc(C(=O)Nc2cccc(C3(C)COCC(N)=N3)c2)cn1 (racemic) [Compound 7] |  |  |  | 5.39 | 6.53 | 6.49

Row | SMILES | IC50 [1] | IC50 [2] | IC50 [3] | Biochemical FRET based assay pIC50 [1] | Cellular αLisa assay in SKNBE2 cells Abetatotal pIC50 [2] | Cellular αLisa assay in SKNBE2 cells Abeta 42 pIC50 [3]
22 | CC1(c2cc(NC(=O)c3ncc(Cl)cn3)ccc2F)COCC(N)=N1 (stereo not drawn) [Compound 144] |  |  |  | 7.11 | 7.38 | 7.27
23 | CC1(c2cc(NC(=O)c3ccc(Cl)cn3)c(F)cc2F)COCC(N)=N1 (racemic) [Compound 60] |  |  |  | 5.65 | 6.92 | 6.89
24 | CC1(c2cccc(NC(=O)c3ccc(Cl)cn3)c2)COC(F)(C(F)(F)F)C(N)=N1 (single isomer, unassigned) [Compound 71] |  |  |  | 6.25 | <5 | <5
25 | CCC1(c2cc(NC(=O)c3ncc(Cl)cc3F)ccc2F)N=C(N)COC1F (stereo not drawn) [Compound 283] | 67.6 nM | 24.5 nM | 30.2 nM |  |  | 
26 | Cc1cc(Cl)cnc1C(=O)Nc1ccc(F)c([C@]2(C)COCC(N)=N2)c1 [Compound 143] |  |  |  | 7.48 | 8.36 | 8.35
27 | N#Cc1cnc(C(=O)Nc2cccc([C@@]3(C4CC4)N=C(N)CO[C@H]3F)c2)c(Cl)c1 [Compound 309] | 219 nM | 72.4 nM | 74.1 nM |  |  | 
28 | CC1(c2cc(NC(=O)c3ccc(C(F)(F)F)cn3)c(F)cc2F)COCC(N)=N1 (racemic) [Compound 13] |  |  |  | 5.37 | 6.84 | 6.83
29 | CC#Cc1cncc(-c2ccc(F)c(C3(C4CC4)N=C(N)COC3F)c2)c1 (stereo not drawn) [Compound 292] |  |  |  | 6.17 | 6.17 | 5.98
30 | CC1(c2cccc(-c3cncnc3)c2)N=C(N)COC1(F)C(F)(F)F (single isomer, unassigned) [Compound 140] | > 30200 nM |  |  |  | <5 | <5
31 | N#Cc1cnc(C(=O)Nc2ccc(F)c([C@@]3(C4CC4)N=C(N)CO[C@H]3C(F)(F)F)c2)c(Cl)c1 [Compound 235] | 33.1 nM | 14.1 nM | 14.5 nM |  |  | 
32 | N#Cc1cncc(-c2cccc([C@@]3(C4CC4)N=C(N)CO[C@@H]3F)c2)c1 [Compound 311] | 1380 nM | 1120 nM | 1450 nM |  |  | 
33 | C[C@]1(c2cccc(NC(=O)c3ncc(C#N)cc3Cl)c2)N=C(N)CO[C@]1(F)C(F)(F)F [Compound 245] | 21.9 nM | 5.89 nM | 6.61 nM |  |  | 
34 | CC1(c2cccc(NC(=O)c3ncc(Cl)cc3F)c2)N=C(N)COC1(F)C(F)(F)F (single isomer, unassigned) [Compound 175] | 295 nM |  |  |  | 5.24 | 5.18
35 | CC1(c2cccc(NC(=O)c3ccncn3)c2)N=C(N)COC1(F)C(F)(F)F (single isomer, unassigned) [Compound 190] | > 30200 nM |  |  |  | 5.25 | 5.2
36 | CCC1(c2cc(NC(=O)c3ncc(C#N)cc3Cl)ccc2F)N=C(N)COC1C(F)(F)F (stereo not drawn) [Compound 284] | 87.1 nM | 17.4 nM | 17.8 nM |  |  | 
37 | COc1cc(Cl)ccc1C(=O)Nc1ccc(F)c([C@]2(C)COCC(N)=N2)c1 [Compound 45] |  |  |  | 5.53 | 6.92 | 6.85
38 | Cc1cnc(C(=O)Nc2ccc(F)c([C@]3(C)COCC(N)=N3)c2)cn1 [Compound 40] |  |  |  | 6.04 | 7.32 | 7.31
39 | CC1(c2cccc(NC(=O)c3ccc(Cl)cn3)c2)COC(F)(C(F)(F)F)C(N)=N1 (single isomer, unassigned) [Compound 70] |  |  |  | 5.77 | 5.31 | 5.17
40 | NC1=N[C@@](c2cc(NC(=O)c3ccc(Cl)cn3)ccc2F)(C2CC2)[C@H](C(F)(F)F)OC1 [Compound 233] | 31.6 nM | 12.9 nM | 12 nM |  |  | 
41 | COc1cncc(-c2cccc(C3(C)N=C(N)COC3(F)C(F)(F)F)c2)c1 (single isomer, unassigned) [Compound 119] | 11200 nM |  |  |  | 5.67 | 5.62
